Assay results: paper PMC12298270, “Development and Validation of a New LC-MS/MS Method for Simultaneous Quantification of Ivacaftor, Tezacaftor and Elexacaftor Plasma Levels in Pediatric Cystic Fibrosis Patients” (Pharmaceuticals, 2025)

How the values were obtained:
[1] = design: method as in PMID 38494378; conditions: cited from earlier work
[2] = Stability of prepared QC samples after one cycle of freezing (−80 °C) and thawing; assay type: physicochemical; conditions: low-, medium- and high-QC samples, thawed after 12 days
Procedure: (§1) We have also evaluated the stability of prepared low-, medium- and high-QC samples following one cycle of freezing (−80 °C) and thawing (after 12 days). The calculated stability for ivacaftor, tezacaftor and elexacaftor was 100–107% after 12 days. Patient samples (n = 3 T0 and T4) were randomly selected and re-analyzed after being stored at −80 °C over a period of five months. Compared to the first measurement (time 0), the stability ranged from 85.48 ± 19.83% (mean ± SD) for IVA T4 to 90.55 ± 2.42% for ELX T0 (Supplementary Table S2). Autosampler stability was tested by analyzing IVA, TEZ and ELX concentrations in QCs maintained at room temperature at time 0 (corresponding to preparation of QC samples and to the first measurement) and after 24 h (short-term stability) or 9 days (long-term stability). We also evaluated, on prepared low-, medium- and high-QC samples, the stability following one cycle of freezing (−80 °C) and thawing (after 12 days). To further assess long-term stability, n = 3 T0 and T4 of authentic samples, stored at −80 °C over a period of five months, were randomly chosen and re-analyzed. The percentage difference between the concentration measured at each sampling point and the initial concentration was calculated. Based on ICH guideline M10, a percentage difference below the 15% was considered acceptable.

[3] = Short- and long-term autosampler stability of prepared QC samples at room temperature; assay type: physicochemical; conditions: for Stability (%): autosampler; for 9-day autosampler stability: across L-, M- and H-QC levels
Procedure: Both short- and long-term stability were evaluated on prepared QC samples kept at room temperature for a maximum of 9 days. After 24 h from QC sample preparation and first assessment (Time 0), the stability was around 100% for all QC samples. […] Autosampler stability was tested by analyzing IVA, TEZ and ELX concentrations in QCs maintained at room temperature at time 0 (corresponding to preparation of QC samples and to the first measurement) and after 24 h (short-term stability) or 9 days (long-term stability). We also evaluated, on prepared low-, medium- and high-QC samples, the stability following one cycle of freezing (−80 °C) and thawing (after 12 days). To further assess long-term stability, n = 3 T0 and T4 of authentic samples, stored at −80 °C over a period of five months, were randomly chosen and re-analyzed. The percentage difference between the concentration measured at each sampling point and the initial concentration was calculated. Based on ICH guideline M10, a percentage difference below the 15% was considered acceptable.

[4] = design: method as in PMID 40245791; conditions: H-QC, after sample preparation; cited from earlier work
[5] = Long-term −80 °C stability of authentic patient plasma samples; assay type: physicochemical, human; conditions: for Stability, % of the first measurement: n = 3 T0 and T4 patients' samples, −80 °C, five months; for Stability (%) mean ± SD, T0 samples / Stability (%) mean ± SD, T4 samples: patient plasma n = 3, stored at −80 °C, 5 months vs Time 0
Procedure: as §1

[6] = design: method as in ref 22 = [22]; 22. Kaftrio®, Summary of Product Characteristics (SmPC), European Medicine Agency (EMA) Available online: https://www.ema.europa.eu/en/medicines/human/EPAR/kaftrio (accessed on 3 March 2024); conditions: cited from earlier work
[7] = H-QC (18 µg/mL), 24 H vs Time 0
[8] = H-QC (18 µg/mL), Day 9 vs Time 0
[9] = L-QC (0.3 µg/mL), 24 H vs Time 0
[10] = L-QC (0.3 µg/mL), Day 9 vs Time 0
[11] = M-QC (8 µg/mL), Day 9 vs Time 0
[12] = Kaftrio drug registration documents

Row | SMILES | Back-calculated Ctrough, mean ± 1.96 SD [1] [ng/mL] | Stability after one cycle of freezing and thawing [2] | Stability (%) [3, 7] [%] | Stability (%) [3, 8] [%] | Stability (%) [3, 9] [%] | Stability (%) [3, 10] [%] | Stability (%) ([3]; M-QC (8 µg/mL), 24 H vs Time 0) | Stability (%) [3, 11] [%] | 9-day autosampler stability ([3]; 9 days from day 0) [%] | 9-day autosampler stability ([3]; 9 days from day 0, listed as ivacaftor) | Remaining % after ten days in the autosampler [4] [%] | Stability, % of the first measurement [5] | Stability (%) mean ± SD, T0 samples [5] [%] | Stability (%) mean ± SD, T4 samples [5] [%] | AUC0–12h, mean ± SD [6, 12] [ng·h/mL] | Cmax, mean ± SD [6, 12] [ng/mL] | Minimum concentration (Cmin), median (range) [1] [ng/mL] | Effect of simultaneous ingestion of fatty food on exposure ([6]; Kaftrio SmPC)
1 | CC(C)(C)c1cc(C(C)(C)C)c(NC(=O)c2c[nH]c3ccccc3c2=O)cc1O [IVA, Ivacaftor] | 700 | 100–107% | 101.29 | 73.54 | 101.51 | 75.75 | 99.88 | 78.27 | 76 | 73.54–78.27% | 88 | higher than 85% | 86.96 ± 3.98 | 85.48 ± 19.83 | 11700 ± 4010 | 1240 ± 340 | – | –
2 | CC(C)(CO)c1cc2cc(NC(=O)C3(c4ccc5c(c4)OC(F)(F)O5)CC3)c(F)cc2n1C[C@@H](O)CO [TEZ, Tezacaftor] | – | 100–107% | 101.39 | 105.83 | 96.55 | 103.79 | 100.12 | 105.32 | – | – | 99.8 | higher than 85% | 89.35 ± 4.87 | 85.51 ± 11.87 | – | – | 1300 | not affected
